Values of other authors as cited in US20250161538A1, “POLYMER-BASED MATERIAL WITH ANTI-BACTERIAL PROPERTIES WITH IMPROVED MECHANICAL STRENGTH FOR DENTAL APPLICATIONS” (priority 2022, published 2025).

Test system: adult rat pulp tissue
Settings: in vivo, po

[Ag+] [Ag ions, silver]
cytotoxic effect: induce cytotoxic effect
